Patent publication US10072026B2, “Crystalline form of 3-((1R,3s,5S)-3-((7-((5-methyl-1H-pyrazol-3-yl)amino)-1,6-naphthyridin-5-yl)amino)-8-azabicyclo[3.2.1]octan-8-yl)propanenitrile” (priority 2015, dated 2018)

Tests used:
JAK1 = JAK1 (Homo sapiens (Human), UniProt P23458); assay: LanthaScreen JAK biochemical assay (JAK1)
[1] = system: IL-13 induced STAT6 phosphorylation in BEAS-2B human lung epithelial cells; assay: AlphaScreen cellular JAK potency assay, BEAS-2B; details: IL-13 induced STAT6 phosphorylation, BEAS-2B cells
JAK2 = JAK2 (Homo sapiens (Human), UniProt O60674); assay: LanthaScreen JAK biochemical assay (JAK2)
[2] = system: IL-4 induced STAT6 phosphorylation in THP-1 human monocytic cells; assay: Cellular JAK potency assay, THP-1; details: IL-4 induced STAT6 phosphorylation, THP-1 cells

JAK2, sequence (O60674 whole entry): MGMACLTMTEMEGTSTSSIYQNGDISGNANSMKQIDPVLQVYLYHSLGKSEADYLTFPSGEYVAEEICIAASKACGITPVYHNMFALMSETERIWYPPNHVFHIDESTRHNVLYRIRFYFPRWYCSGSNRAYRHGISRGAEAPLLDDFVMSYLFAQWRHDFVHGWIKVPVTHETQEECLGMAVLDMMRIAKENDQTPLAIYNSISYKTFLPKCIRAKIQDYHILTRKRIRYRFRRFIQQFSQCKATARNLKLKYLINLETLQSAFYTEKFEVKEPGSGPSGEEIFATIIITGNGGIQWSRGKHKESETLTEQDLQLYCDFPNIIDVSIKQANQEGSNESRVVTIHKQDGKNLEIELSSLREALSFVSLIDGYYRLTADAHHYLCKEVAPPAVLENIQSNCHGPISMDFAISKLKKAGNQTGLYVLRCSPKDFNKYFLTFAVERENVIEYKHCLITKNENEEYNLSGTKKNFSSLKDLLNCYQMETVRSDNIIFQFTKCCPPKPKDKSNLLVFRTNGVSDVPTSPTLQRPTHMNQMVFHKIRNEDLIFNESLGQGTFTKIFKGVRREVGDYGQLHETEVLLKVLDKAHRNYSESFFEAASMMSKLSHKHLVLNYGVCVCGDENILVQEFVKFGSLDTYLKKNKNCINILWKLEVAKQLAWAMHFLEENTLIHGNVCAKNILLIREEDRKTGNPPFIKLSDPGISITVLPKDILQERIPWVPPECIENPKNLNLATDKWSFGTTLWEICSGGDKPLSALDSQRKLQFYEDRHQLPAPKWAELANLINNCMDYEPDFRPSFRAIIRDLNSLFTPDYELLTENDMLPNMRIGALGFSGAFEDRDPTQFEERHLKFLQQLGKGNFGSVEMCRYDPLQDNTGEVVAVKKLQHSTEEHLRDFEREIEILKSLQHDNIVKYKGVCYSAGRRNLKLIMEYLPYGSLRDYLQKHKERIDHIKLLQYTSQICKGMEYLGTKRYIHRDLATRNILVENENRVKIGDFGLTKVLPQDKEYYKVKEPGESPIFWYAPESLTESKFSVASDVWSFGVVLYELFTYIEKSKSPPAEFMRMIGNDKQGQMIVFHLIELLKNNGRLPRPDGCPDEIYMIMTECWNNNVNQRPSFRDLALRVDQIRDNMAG
JAK1, sequence (P23458 whole entry): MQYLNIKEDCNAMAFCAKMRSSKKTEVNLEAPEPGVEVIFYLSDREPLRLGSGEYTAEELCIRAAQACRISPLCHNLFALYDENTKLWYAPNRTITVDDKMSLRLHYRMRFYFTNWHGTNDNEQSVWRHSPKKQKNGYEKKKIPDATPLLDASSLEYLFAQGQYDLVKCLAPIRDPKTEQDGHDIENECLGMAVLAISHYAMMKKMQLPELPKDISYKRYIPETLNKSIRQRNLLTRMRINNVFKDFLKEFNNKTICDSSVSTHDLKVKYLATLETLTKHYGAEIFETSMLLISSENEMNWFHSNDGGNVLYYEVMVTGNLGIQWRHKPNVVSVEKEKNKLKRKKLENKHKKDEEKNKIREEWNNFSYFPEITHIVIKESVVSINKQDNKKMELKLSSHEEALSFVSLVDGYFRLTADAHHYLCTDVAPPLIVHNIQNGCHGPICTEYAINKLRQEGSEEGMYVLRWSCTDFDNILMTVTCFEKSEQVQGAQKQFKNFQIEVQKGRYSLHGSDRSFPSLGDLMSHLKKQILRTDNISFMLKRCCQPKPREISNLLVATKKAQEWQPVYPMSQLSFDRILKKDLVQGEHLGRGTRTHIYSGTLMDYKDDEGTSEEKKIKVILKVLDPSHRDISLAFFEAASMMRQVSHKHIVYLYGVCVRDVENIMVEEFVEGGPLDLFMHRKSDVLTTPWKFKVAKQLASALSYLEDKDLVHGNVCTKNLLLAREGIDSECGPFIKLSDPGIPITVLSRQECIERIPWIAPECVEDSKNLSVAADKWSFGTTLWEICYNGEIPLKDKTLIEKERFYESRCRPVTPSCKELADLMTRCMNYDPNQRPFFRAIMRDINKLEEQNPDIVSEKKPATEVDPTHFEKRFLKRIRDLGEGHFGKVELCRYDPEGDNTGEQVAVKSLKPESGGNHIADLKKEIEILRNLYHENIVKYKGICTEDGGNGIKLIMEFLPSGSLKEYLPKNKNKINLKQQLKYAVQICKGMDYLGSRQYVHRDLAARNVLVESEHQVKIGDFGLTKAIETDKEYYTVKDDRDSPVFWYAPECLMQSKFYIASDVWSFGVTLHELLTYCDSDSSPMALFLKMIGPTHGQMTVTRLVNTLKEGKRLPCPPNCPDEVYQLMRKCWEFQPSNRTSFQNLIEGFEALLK

SMILES | JAK 1 (pKi) (JAK1) | BEAS2B pIC50 [1] | JAK 2 (pKi) (JAK2) | THP-1 IL4 pIC50 [2]
Cc1cc(Nc2cc3ncccc3c(N[C@@H]3C[C@H]4CC[C@@H](C3)N4Cc3ccncc3)n2)n[nH]1 [Example 1-17] | B (B represents a pKi value between 9 and 10 (Ki between 1 nM and 0.1 nM)) | B (B represents a pEC50 value between 6.7 and 7.5 (EC50 between 200 nM and 32 nM)) | B (B represents a pKi value between 9 and 10 (Ki between 1 nM and 0.1 nM)) | B (B represents a pEC50 value between 6.7 and 7.5 (EC50 between 200 nM and 32 nM))
Cc1cc(Nc2cc3ncccc3c(N[C@@H]3C[C@H]4CC[C@@H](C3)N4C(C)CC#N)n2)n[nH]1 (some centres unmarked) [Example 1-21] | B (B represents a pKi value between 9 and 10 (Ki between 1 nM and 0.1 nM)) | B (B represents a pEC50 value between 6.7 and 7.5 (EC50 between 200 nM and 32 nM)) | B (B represents a pKi value between 9 and 10 (Ki between 1 nM and 0.1 nM)) | A (A represents a pEC50 value≥7.5 (EC50≤32 nM))
Cc1cc(Nc2cc3ncccc3c(N[C@@H]3C[C@H]4CC[C@@H](C3)N4CC(C)C#N)n2)n[nH]1 (some centres unmarked) [Example 1-23] | A (A represents a pKi value≥10 (Ki≤0.1 nM)) | A (A represents a pEC50 value≥7.5 (EC50≤32 nM)) | A (A represents a pKi value≥10 (Ki≤0.1 nM)) | A (A represents a pEC50 value≥7.5 (EC50≤32 nM))
Cc1cc(Nc2cc3ncccc3c(N[C@@H]3C[C@H]4CCC[C@@H](C3)N4CCC#N)n2)n[nH]1 [Example 1-31] | A (A represents a pKi value≥10 (Ki≤0.1 nM)) | A (A represents a pEC50 value≥7.5 (EC50≤32 nM)) | A (A represents a pKi value≥10 (Ki≤0.1 nM)) | A (A represents a pEC50 value≥7.5 (EC50≤32 nM))
Cc1cc(Nc2cc3ncccc3c(N[C@@H]3C[C@H]4CCC[C@@H](C3)N4CCF)n2)n[nH]1 [Example 1-39] | B (B represents a pKi value between 9 and 10 (Ki between 1 nM and 0.1 nM)) | A (A represents a pEC50 value≥7.5 (EC50≤32 nM)) | B (B represents a pKi value between 9 and 10 (Ki between 1 nM and 0.1 nM)) | A (A represents a pEC50 value≥7.5 (EC50≤32 nM))
Cc1cc(Nc2cc3ncccc3c(N[C@@H]3C[C@H]4CCC[C@@H](C3)N4CCCF)n2)n[nH]1 [Example 1-40] | B (B represents a pKi value between 9 and 10 (Ki between 1 nM and 0.1 nM)) | A (A represents a pEC50 value≥7.5 (EC50≤32 nM)) | B (B represents a pKi value between 9 and 10 (Ki between 1 nM and 0.1 nM)) | A (A represents a pEC50 value≥7.5 (EC50≤32 nM))
Cc1cc(Nc2cc3ncccc3c(N[C@@H]3C[C@H]4CCC[C@@H](C3)N4CC(C)C)n2)n[nH]1 [Example 1-43] | B (B represents a pKi value between 9 and 10 (Ki between 1 nM and 0.1 nM)) | A (A represents a pEC50 value≥7.5 (EC50≤32 nM)) | B (B represents a pKi value between 9 and 10 (Ki between 1 nM and 0.1 nM)) | A (A represents a pEC50 value≥7.5 (EC50≤32 nM))
Cc1cc(Nc2cc3ncccc3c(N[C@@H]3C[C@H]4CCC[C@@H](C3)N4CCC(F)(F)F)n2)n[nH]1 [Example 1-44] | B (B represents a pKi value between 9 and 10 (Ki between 1 nM and 0.1 nM)) | A (A represents a pEC50 value≥7.5 (EC50≤32 nM)) | B (B represents a pKi value between 9 and 10 (Ki between 1 nM and 0.1 nM)) | A (A represents a pEC50 value≥7.5 (EC50≤32 nM))
Cc1cc(Nc2cc3ncccc3c(N[C@@H]3C[C@H]4CCC[C@@H](C3)N4C(=O)c3cncc(C#N)c3)n2)n[nH]1 [Example 2-26] | B (B represents a pKi value between 9 and 10 (Ki between 1 nM and 0.1 nM)) | C (C represents a pEC50 value<6.7 (EC50>200 nM)) | B (B represents a pKi value between 9 and 10 (Ki between 1 nM and 0.1 nM)) | 
Cc1cc(Nc2cc3ncccc3c(N[C@@H]3C[C@H]4CCC[C@@H](C3)N4C(=O)c3ccnc(C#N)c3)n2)n[nH]1 [Example 2-30] | B (B represents a pKi value between 9 and 10 (Ki between 1 nM and 0.1 nM)) | C (C represents a pEC50 value<6.7 (EC50>200 nM)) | B (B represents a pKi value between 9 and 10 (Ki between 1 nM and 0.1 nM)) | 
Cc1cc(Nc2cc3ncccc3c(N[C@@H]3C[C@H]4CCC[C@@H](C3)N4C(=O)CCC(C)C)n2)n[nH]1 [Example 2-31] | B (B represents a pKi value between 9 and 10 (Ki between 1 nM and 0.1 nM)) | B (B represents a pEC50 value between 6.7 and 7.5 (EC50 between 200 nM and 32 nM)) | B (B represents a pKi value between 9 and 10 (Ki between 1 nM and 0.1 nM)) | 
CCC(C)OC(=O)N1[C@@H]2CCC[C@H]1C[C@H](Nc1nc(Nc3cc(C)[nH]n3)cc3ncccc13)C2 (some centres unmarked) [Example 3-12] | B (B represents a pKi value between 9 and 10 (Ki between 1 nM and 0.1 nM)) | B (B represents a pEC50 value between 6.7 and 7.5 (EC50 between 200 nM and 32 nM)) | B (B represents a pKi value between 9 and 10 (Ki between 1 nM and 0.1 nM)) | 
